Assays:
recombinant Nampt = recombinant Nampt (Homo sapiens, UniProt P43490); test: Recombinant Nampt enzymatic activity assay; settings: enzyme assay with recombinant Nampt
PI3K = test: Ex vivo ischemia reperfusion with PI3K inhibitor LY294002, pAKT Western blot; parameters: species or system mice; settings: WT hearts; LY294002 15 μM prior to global ischemia
[1] = tested on: C57Bl/6J mice on a high-fat diet; settings: cited from earlier work

recombinant Nampt, sequence (P43490 whole entry, the tested form may be a part): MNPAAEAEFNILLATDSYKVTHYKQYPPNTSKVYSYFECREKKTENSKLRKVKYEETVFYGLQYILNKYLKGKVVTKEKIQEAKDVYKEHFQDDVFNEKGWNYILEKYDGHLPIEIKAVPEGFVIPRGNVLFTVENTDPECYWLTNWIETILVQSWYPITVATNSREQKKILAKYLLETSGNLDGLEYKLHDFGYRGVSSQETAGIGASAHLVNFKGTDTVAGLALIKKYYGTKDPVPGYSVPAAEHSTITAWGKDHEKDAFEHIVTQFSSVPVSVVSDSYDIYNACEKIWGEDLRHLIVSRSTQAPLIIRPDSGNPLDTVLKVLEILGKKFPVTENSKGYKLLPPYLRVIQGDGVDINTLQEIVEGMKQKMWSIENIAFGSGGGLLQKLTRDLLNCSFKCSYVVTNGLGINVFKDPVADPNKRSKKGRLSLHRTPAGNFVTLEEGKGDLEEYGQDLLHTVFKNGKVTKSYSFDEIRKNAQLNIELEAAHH

## O=C(/C=C/c1cccnc1)NCCCCC1CCN(C(=O)c2ccccc2)CC1 [FK866]
Recombinant Nampt
  Nampt activity: significantly decreased

## Cl.O=c1cc(N2CCOCC2)oc2c(-c3ccccc3)cccc12 [LY294002, 2-(4-Morpholinyl)-8-phenyl-1(4H)-benzopyran−4-one hydrochloride]
PI3K
  P7C3 based pAkt expression: attenuated

## COc1cccc(NCC(F)Cn2c3ccc(Br)cc3c3cc(Br)ccc32)c1 (stereo not drawn) [P7C3 A20]
[1]
  fatty liver syndrome: rescued
